In assay [1] the target is T1, AKR1C3 (Homo sapiens, UniProt P42330).
T1 construct: made in house
T1 sequence (P42330 1-323): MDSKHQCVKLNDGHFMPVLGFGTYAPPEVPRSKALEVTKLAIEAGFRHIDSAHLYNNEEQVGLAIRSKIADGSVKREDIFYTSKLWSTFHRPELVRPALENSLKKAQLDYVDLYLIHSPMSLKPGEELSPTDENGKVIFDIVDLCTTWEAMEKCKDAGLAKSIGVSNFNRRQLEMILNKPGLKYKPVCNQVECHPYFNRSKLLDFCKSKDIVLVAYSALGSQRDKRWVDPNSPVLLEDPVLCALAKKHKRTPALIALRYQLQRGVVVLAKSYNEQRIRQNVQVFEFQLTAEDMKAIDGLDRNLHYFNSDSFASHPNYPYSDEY
Kind of assay: Inhibition of recombinant AKR1C3, oxidation of 1-acenaphthenol, progress-curve analysis. It is filed as biochemical. The following applies: for k+3 / Ki / k+2 / inhibitory effect (in words) / irreversible inhibition (in words): AKR1C3; for k+3: irreversible binding of second inhibitor molecule to E-NADH-I; for fold less efficient inhibition of AKR1C3 compared to AKR1C1: from K3 values; for k+2: irreversible binding of second inhibitor molecule to E-NAD-I. The protocol:
(§1) To investigate the effect of ten selected ruthenium compounds, we measured their effect on the time course of oxidation of the artificial substrate 1-acenaphtenol by recombinant enzymes AKR1C1–3. The recombinant enzymes AKR1C1–AKR1C3 were prepared as described previously ([Brozic et al., 2006]). Since the artificial substrate is racemic, the oxidation follows a double exponential pattern as described previously ([Traven et al., 2015]). The in vitro catalytic activity of AKR1C1–3 enzymes was determined spectrophotometrically by monitoring the increase in NADH absorbance at 340 nm (ε(λ340) = 6220 M^−1cm^−1) in the presence of the substrate 1-acenaphthenol. Enzymatic reactions (300 µL) were performed in 100 mm potassium phosphate buffer (pH 9.0), 0.005% (v/v) TritonX-114, 5% (v/v) DMSO, containing 2.3 mm NAD^+ and 1-acenaphthenol at final concentrations of 90, 180, and 250 µM for AKR1C1, AKR1C2, and AKR1C3, respectively. A total of 5 µL of a tested compound in DMSO was added to the reaction mixture. The final concentrations of the tested compounds ranged from 1 to 200 μM, depending on the extent of inhibition (Supplementary Data). The reaction was started by adding 15 µL of AKR1C1, AKR1C2, or AKR1C3 dissolved in 1x PBS (pH 7.3) at final concentrations of 0.11, 0.16, and 1.5 µM, respectively. AKR1C1–3 activity was measured at 37°C for 3 h without shaking using a PowerWave XS microplate reader (Biotek; Winooski, VT, United States). Measurements at seven different concentrations were performed in duplicates or triplicates (Supplementary Figures S2). To mechanistically explain all the obtained progress curves for each ruthenium complex on each enzyme by a common reaction scheme, we extended the originally proposed scheme so that the interaction of the ruthenium complex with apo- and holoenzyme was allowed to be rapid and followed by a slow irreversible association of a second ruthenium complex molecule. However, the affinity of the Ru complexes for the apoenzymes was much lower so this part was excluded from the proposed kinetic model for clarity (Figure 4).
(§2) FIGURE 4 Reaction scheme for the oxidation of 1-acenaphtenol by AKR1C1-3 and its inhibition by ruthenium compounds. E represents apoenzyme, E-NAD and E-NADH represent holoenzyme with bound NAD^+ and NADH, respectively. A and B are enantiomers of substrate 1-acenaphtenol. Symbols which include I (ruthenium compound) represent holoenzyme in complex with one or two inhibitor molecules. KNAD, KNADH, and K2-3 are equilibrium constants and k+2–3 are second-order association rate constants for the binding of the second inhibitor molecule to the enzyme. The progress curves for each enzyme in the presence of ruthenium complexes were analyzed by the WEB server ENZO (https://enzo.cmm.ki.si/) designed exactly for such purposes ([Bevc et al., 2011]).

In assay [2] the target is T2, AKR1C2 (Homo sapiens, UniProt P52895).
T2 construct: made in house
T2 sequence (P52895 1-323): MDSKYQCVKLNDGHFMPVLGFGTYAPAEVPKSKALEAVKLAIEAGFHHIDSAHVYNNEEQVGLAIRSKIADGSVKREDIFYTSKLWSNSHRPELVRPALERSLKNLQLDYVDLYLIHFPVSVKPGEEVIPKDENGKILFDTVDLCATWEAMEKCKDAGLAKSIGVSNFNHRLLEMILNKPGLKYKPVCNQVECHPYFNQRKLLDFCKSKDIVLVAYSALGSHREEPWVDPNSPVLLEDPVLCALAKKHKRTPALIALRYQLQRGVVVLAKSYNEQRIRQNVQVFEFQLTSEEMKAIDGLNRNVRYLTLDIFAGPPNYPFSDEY
Kind of assay: Inhibition of recombinant AKR1C2, oxidation of 1-acenaphthenol, progress-curve analysis. The assay is classed as biochemical. The following applies: for k+3: irreversible binding of second inhibitor molecule to E-NADH-I; for fold less efficient inhibition of AKR1C2 compared to AKR1C1: from K3 values; for k+2: irreversible binding of second inhibitor molecule to E-NAD-I. The protocol: as §1, §2

[3] abbreviates: reversible binding to holoenzyme E-NAD, read-out: K2.
Setting [4] is: reversible binding to holoenzyme E-NADH, read-out: K3.
Where [5] appears, read: AKR1C2, reversible binding to holoenzyme E-NAD, read-out: K2.
Where [6] appears, read: AKR1C2, reversible binding to holoenzyme E-NADH, read-out: K3.

SMILES strings stand for the structures. Where two headings read alike, the source gives them in different places.

Take `Cc1ccc(C(C)C)cc1.O=C(C=C([O][Ru][Cl])c1ccc(I)cc1)C(F)(F)F` [Compound 1]: the “k+3” value in assay [1] was 0.9 M⁻¹ s⁻¹; in assay [2] (AKR1C2), 7.7 M⁻¹ s⁻¹. Besides, the Ki in assay [1] (setting [3]) came to 105 µM; in assay [1] (setting [4]), 0.163 µM; in assay [2] (setting [5]), 305 µM; in assay [2] (setting [6]), 0.0527 µM. Besides, the “fold less efficient inhibition of AKR1C3 compared to AKR1C1” value (“fold less efficient inhibition of AKR1C3” below) in assay [1] was found to be 7.6 fold. For the same molecule, in assay [2], the “fold less efficient inhibition of AKR1C2 compared to AKR1C1” value (from here on “fold less efficient inhibition of AKR1C2”) stood at 2.5 fold.

Consider `C1N2CN3CN1CP(C2)C3.Cc1ccc(C(C)C)cc1.F[P-](F)(F)(F)(F)F.O=C(C=C([O][Ru+])c1ccc(I)cc1)C(F)(F)F` [Compound 2], for which the “k+2” value in assay [1] stood at 5.3 M⁻¹ s⁻¹; in assay [2] (AKR1C2), 12.6 M⁻¹ s⁻¹. Further, the figures for the Ki in assay [1] (setting [3]) and in assay [2] (setting [5]) were 116 µM and 80 µM, respectively.

For `CN(C)c1ccc(C(=CC(=O)C(F)(F)F)[O][Ru][Cl])cc1.Cc1ccc(C(C)C)cc1` [Compound 3, (η^6-p-cymene)chlorido(4,4,4-trifluoro-1-(4-(dimethylamino)phenyl)-1,3-butandionato)ruthenium(II)], the “k+2” value was determined as 10.2 M⁻¹ s⁻¹ in assay [1] and 7.4 M⁻¹ s⁻¹ in assay [2] (AKR1C2). Also, the entries for the “k+3” value in assay [1] and in assay [2] (AKR1C2) were 1.2 M⁻¹ s⁻¹ and 55.4 M⁻¹ s⁻¹, respectively. In addition, the Ki in assay [1] (setting [3]) is 179 µM; in assay [1] (setting [4]) it was 0.306 µM; in assay [2] (setting [5]), 157 µM; in assay [2] (setting [6]) it was 1.12 µM. Also, the “fold less efficient inhibition of AKR1C3” value in assay [1] was 7.1 fold. Further, in assay [2], the “fold less efficient inhibition of AKR1C2” value is 26 fold.

For `Cc1ccc(C(C)C)cc1.O=C(C=C([O][Ru][Cl])c1ccc2c(c1)OCO2)C(F)(F)F` [Compound 5], the “k+3” value in assay [1] is 0.5 M⁻¹ s⁻¹; in assay [2] (AKR1C2), 7.3 M⁻¹ s⁻¹. In addition, the Ki came to 0.15 µM in assay [1] (setting [4]) and 0.0662 µM in assay [2] (setting [6]). The “fold less efficient inhibition of AKR1C3” value in assay [1] is 6.3 fold. In addition, the “fold less efficient inhibition of AKR1C2” value in assay [2] is given as 2.8 fold.

As to `C1N2CN3CN1CP(C2)C3.Cc1ccc(C(C)C)cc1.F[P-](F)(F)(F)(F)F.O=C(C=C([O][Ru+])c1ccc2c(c1)OCO2)C(F)(F)F` [Compound 6], the entries for the “k+2” value in assay [1] and in assay [2] (AKR1C2) were 90 M⁻¹ s⁻¹ and 172 M⁻¹ s⁻¹, respectively. In addition, the figures for the Ki in assay [1] (setting [3]) and in assay [2] (setting [5]) were 92.7 µM and 8.3 µM, respectively.

In the case of `Cc1ccc(C(C)C)cc1.[Cl-].[O-]c1c(I)cc(Cl)c2cccnc12.[Ru+2]` [Compound 7], the “inhibitory effect (in words)” value in assay [1] was “Almost no inhibition”. For the same molecule, the “k+3” value in assay [2] (AKR1C2) came to 11.1 M⁻¹ s⁻¹. For the same molecule, in assay [2] (setting [6]), the Ki turned out to be 0.0654 µM.

As to `C1N2CN3CN1CP(C2)C3.Cc1ccc(C(C)C)cc1.F[P-](F)(F)(F)(F)F.[O-]c1c(I)cc(Cl)c2cccnc12.[Ru+2]` [Compound 8], the “k+2” value in assay [2] (AKR1C2) turned out to be 929 M⁻¹ s⁻¹. In addition, in assay [2] (setting [5]), the Ki was determined as 1.6 µM.

Regarding `Cc1ccc(C(C)C)cc1.O=[N+]([O-])c1ccc([O][Ru][Cl])c2ncccc12` [Compound 9, (η ^6-p-Cymene) (nitroxolinato)chloridoruthenium (II)], the “inhibitory effect (in words)” value in assay [1] and in assay [2] (AKR1C2) was “very weak inhibitory effect” throughout. Also, the “irreversible inhibition (in words)” value in assay [1] and in assay [2] (AKR1C2) was “virtually no irreversible inhibition” throughout. Moreover, the Ki amounted to 439 µM in assay [1] (setting [3]) and 191 µM in assay [2] (setting [5]).

On to `C1N2CN3CN1CP(C2)C3.Cc1ccc(C(C)C)cc1.F[P-](F)(F)(F)(F)F.O=[N+]([O-])c1ccc([O][Ru+])c2ncccc12` [Compound 10, (η ^6-p-cymene)(nitroxolinato)(pta)ruthenium(II) hexafluorophosphate], for which, in assay [1], the “inhibitory effect (in words)” value is “Almost no inhibition” and the “irreversible inhibition (in words)” value is “no irreversible inhibition”. The Ki in assay [1] (setting [3]) was found to be 561 µM. Also, the “k+2” value in assay [2] (AKR1C2) was 5.1 M⁻¹ s⁻¹. The Ki in assay [2] (setting [5]) stood at 42.5 µM.

The record behind these values is PMC9403717, “Ruthenium complexes show potent inhibition of AKR1C1, AKR1C2, and AKR1C3 enzymes and anti-proliferative action against chemoresistant ovarian cancer cell line” (Frontiers in Pharmacology, 2022).
